One assay relates to MiaPaCa-2 cells. The assay can be described thus: MiaPaCa-2 CTG proliferation assay (pancreatic cancer). Format: cell-based. Particulars: Homo sapiens, MIA PaCa-2, 120 h, 5 days, read-out: IC50 MiaPACA2. The method, then:
(§1) The proliferation assays started (day1) with seeding cells in flat bottom 384 well microtiter plates in 90 μL DMEM medium supplemented with 10% FBS at a density of 500 cells/well. Any other luminescence compatible plate format is possible. On day 2, 10 μL dilutions of the test compounds covering a concentration range between app. 0,1 and 10.000 nM were added to the cells. Cells were incubated for 5 days in a humidified, incubator with 5% CO2 at 37° C. On day 7 100 μl of Cell Titer Glow reagent (Cell titer Glo Luminescent Cat. No. G7571, Promega) were added to each well and incubated for additional 10 min at room temperature (with agitation). Luminescence was measured on a Wallac Victor using standard luminescence read out. IC50 values were calculated using standard Levenburg Marquard algorithms (GraphPad Prism).
The IC50 is the concentration at which inhibition is half-maximal. Turning to `C=CC(=O)N1CCN(c2cc(O[C@@H](C)[C@@H]3CCCN3C)nc(-c3noc([C@@]4(C)CCCc5sc(N)c(C#N)c54)n3)n2)CC12CC2` [Ia-77], the IC50 was determined as 13.3 nM.
Turning to `C=CC(=O)N1[C@@H](C)CN(c2cc(-c3noc([C@@]4(C)CCCc5sc(N)c(C#N)c54)n3)nc(O[C@@H](C)[C@@H]3CCCN3C)n2)C[C@@H]1C` [Ia-62], the IC50 is 6.77 nM.
Take `C=CC(=O)N1CCN(c2cc(-c3noc([C@@]4(C)CCCc5sc(N)c(C#N)c54)n3)nc(O[C@@H](C)[C@@H]3CCCN3C)n2)CC1` [Ia-46]: the 50% inhibitory concentration (IC50) was found to be 3 nM.
With `C=CC(=O)N1C[C@H](C)N(c2cc(-c3noc([C@@]4(C)CCCc5sc(N)c(C#N)c54)n3)nc(O[C@@H](C)[C@@H]3CCCN3C)n2)C[C@H]1C` [Ia-133], the half-inhibitory concentration (IC50) is 673 nM.

A further assay concerns NCI-H358 cells. Briefly: NCI-H358 CTG proliferation assay (120 h) (NSCLC). Format: cell-based. Particulars: Homo sapiens. Here is the method:
NCI-H358 cells (ATCC No. CRL-5807) were dispensed into white bottom opaque 96 well plates (Perkin Elmer cat no. 5680) at a density of 2000 cells per well in 100 μL RPMI-1640 ATCC-Formulation (Gibco #A10491)+10% FCS. Cells were incubated overnight at 37° C. in a humidified tissue culture incubator at 5% CO2. Compounds (10 mM stock in DMSO) were added at logarithmic dose series using the HP Digital Dispenser D300 (Tecan), normalizing for added DMSO. For the T0 time point measurement, untreated cells were analyzed at the time of compound addition. Plates were incubated for 120 hours, and cell viability was measured using CellTiter-Glo luminescent cell viability reagent (Promega product code G7570). Viability (stated as percent of control) is defined as relative luminescence units RLU of each well divided by the RLU of cells in DMSO controls. IC50 values were determined from viability measurements by non-linear regression using a four parameter model.
`C=CC(=O)N1CCN(c2cc(O[C@@H](C)[C@@H]3CCCN3C)nc(-c3noc([C@@]4(C)CCCc5sc(N)c(C#N)c54)n3)n2)CC12CC2` [Ia-77]: it took 4.2 nM to reach half-maximal inhibition (IC50).
For `C=CC(=O)N1[C@@H](C)CN(c2cc(-c3noc([C@@]4(C)CCCc5sc(N)c(C#N)c54)n3)nc(O[C@@H](C)[C@@H]3CCCN3C)n2)C[C@@H]1C` [Ia-62], half-maximal inhibition (IC50) required 1.01 nM.
With `C=CC(=O)N1CCN(c2cc(-c3noc([C@@]4(C)CCCc5sc(N)c(C#N)c54)n3)nc(O[C@@H](C)[C@@H]3CCCN3C)n2)CC1` [Ia-46], the IC50 is 0.95 nM.
The compound `C=CC(=O)N1C[C@H](C)N(c2cc(-c3noc([C@@]4(C)CCCc5sc(N)c(C#N)c54)n3)nc(O[C@@H](C)[C@@H]3CCCN3C)n2)C[C@H]1C` [Ia-133] registered a half-maximal inhibitory concentration (IC50) of 41.4 nM.

The test system of a further assay is SW837 cells. The assay can be described thus: SW 837 CTG proliferation assay (CRC). Particulars: Homo sapiens. Format: cell-based. The method, then:
SW837 cells (ATCC #CCL-235) were grown in cell culture flasks (175 cm^2) using L-15 10% FCS, 1% L-Glu, 1xNEAA and 1× Na-Pyrovat. Cultures were incubated at 37° C. and 0% CO2 in a humidified atmosphere, with medium change or subcultivation 2-3 times a week. Materials used for the assay were CulturPlate-384, White Opaque 384-well Microplate, Sterile and Tissue Culture Treated (Perkin Elmer #6007680), Leibovitz L15 Medium and FBS #SH30071.03 (HyClone).
as §1, with “L-15” for “DMEM medium supplemented with”, “FCS, 1% L-Glu, 1xNEAA and 1×Na-Pyrovat” for “FBS”, “humidified, CO2 controlled (no CO2)” for “humidified,”, “incubator” for “incubator with 5% CO2”, “μL” for “μl”
`C=CC(=O)N1CCN(c2cc(O[C@@H](C)[C@@H]3CCCN3C)nc(-c3noc([C@@]4(C)CCCc5sc(N)c(C#N)c54)n3)n2)CC12CC2` [Ia-77] gave an IC50 of 4.11 nM.
Compound `C=CC(=O)N1[C@@H](C)CN(c2cc(-c3noc([C@@]4(C)CCCc5sc(N)c(C#N)c54)n3)nc(O[C@@H](C)[C@@H]3CCCN3C)n2)C[C@@H]1C` [Ia-62] came in with an IC50 of 0.42 nM.
Compound `C=CC(=O)N1CCN(c2cc(-c3noc([C@@]4(C)CCCc5sc(N)c(C#N)c54)n3)nc(O[C@@H](C)[C@@H]3CCCN3C)n2)CC1` [Ia-46] displayed a half-inhibitory concentration (IC50) below 1 nM.
On to `C=CC(=O)N1C[C@H](C)N(c2cc(-c3noc([C@@]4(C)CCCc5sc(N)c(C#N)c54)n3)nc(O[C@@H](C)[C@@H]3CCCN3C)n2)C[C@H]1C` [Ia-133], for which the IC50 turned out to be 71 nM.

For the next assay, the target named is KRASG12-dependent Ba/F3 cells (Homo sapiens, UniProt P01116, G12C, cells depend on it). The assay can be described thus: Ba/F3 cell model proliferation assay (AlamarBlue, 72 h). Format: cell-based. Conditions: Ba/F3 cells transduced with KRASG12C, read-out: IC50 Ba/F3 KRASG12C. (In general: Alamar Blue is a resazurin reagent that responds to reducing activity.)
KRASG12-dependent Ba/F3 cells, sequence (P01116 whole entry G12C): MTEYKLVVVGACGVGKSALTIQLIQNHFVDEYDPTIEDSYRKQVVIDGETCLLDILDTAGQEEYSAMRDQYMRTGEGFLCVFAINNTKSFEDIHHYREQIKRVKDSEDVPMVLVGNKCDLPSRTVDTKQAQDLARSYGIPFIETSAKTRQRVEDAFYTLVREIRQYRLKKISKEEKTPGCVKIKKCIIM
`C=CC(=O)N1CCN(c2cc(O[C@@H](C)[C@@H]3CCCN3C)nc(-c3noc([C@@]4(C)CCCc5sc(N)c(C#N)c54)n3)n2)CC12CC2` [Ia-77]: the GI50 was found to be 6.9 nM.
Turning to `C=CC(=O)N1[C@@H](C)CN(c2cc(-c3noc([C@@]4(C)CCCc5sc(N)c(C#N)c54)n3)nc(O[C@@H](C)[C@@H]3CCCN3C)n2)C[C@@H]1C` [Ia-62], the GI50 was 1.2 nM.
Turning to `C=CC(=O)N1CCN(c2cc(-c3noc([C@@]4(C)CCCc5sc(N)c(C#N)c54)n3)nc(O[C@@H](C)[C@@H]3CCCN3C)n2)CC1` [Ia-46], the GI50 was determined as 4.4 nM.
For the compound `C=CC(=O)N1C[C@H](C)N(c2cc(-c3noc([C@@]4(C)CCCc5sc(N)c(C#N)c54)n3)nc(O[C@@H](C)[C@@H]3CCCN3C)n2)C[C@H]1C` [Ia-133], the GI50 was 77.7 nM.

A further assay has as its system pERK (Thr202/Tyr204) in NCI-H358_Cas9_SOS2 (SOS2 knocked). The assay can be described thus: ERK phosphorylation assay 2 (AlphaLISA SureFire Ultra p-ERK1/2). Particulars: read-out: IC50 H358 pERK, ERK phosphorylation assay 2 (values marked with *). (Alpha assays give light when donor and acceptor beads are brought close together.)
Protocol: ERK Phosphorylation Assay
Low IC50 values in this assay setting are indicative of high potency of the compounds according to the invention.
GFP positive cells were collected and further expanded. These GFP-positive cell pools were single-cell diluted and SOS2 knock-out clones were identified via Western-blot and genomic DNA sequencing analysis.
Materials Used for the Assay:
AlphaLISA SureFire Ultra p-ERK1/2 (Thr202/Tyr204) Assay Kit (ALSU-PERK-A500)
Cells are seeded at 40,000 cells per well in /60 μL of RPMI with 10% FBS, non-essential amino acids, pyruvate and glutamax in Greiner TC 384 plates. The cells are incubated for 1 h at room temperature and then incubated overnight in an incubator at 37° C. and 5% CO2 in a humidified atmosphere. 60 nL compound solution (10 mM DMSO stock solution) is then added using a Labcyte Echo 550 device. After a 1 h incubation in the aforementioned incubator the medium is removed after centrifugation and the cells lysed by addition of 20 μL of 1.6-fold lysis buffer from the AlphaLISA SureFire Ultra pERK1/2 (Thr202/Tyr204) Assay Kit with added protease inhibitors, 100 nM trametinib+100 nM staurosporine. After 20 minutes of incubation at room temperature with shaking, 6 μL of each lysate sample is transferred to a 384-well Proxiplate and analyzed for pERK (Thr202/Tyr204) with the AlphaLISA SureFire Ultra pERK1/2 (Thr202/Tyr204) Assay Kit. 3 μL Acceptor Mix and 3 μL Donor Mix are added under subdued light and incubated for 2 h at room temperature in the dark, before the signal is measured on a PerkinElmer Envision HTS Multilabel Reader. The raw data were imported into and analyzed with the Boehringer Ingelheim proprietary software MegaLab (curve fitting based on the program PRISM, GraphPad Inc.).
Take `C=CC(=O)N1CCN(c2cc(O[C@@H](C)[C@@H]3CCCN3C)nc(-c3noc([C@@]4(C)CCCc5sc(N)c(C#N)c54)n3)n2)CC12CC2` [Ia-77]: the IC50 is 2.6 nM.
On to `C=CC(=O)N1[C@@H](C)CN(c2cc(-c3noc([C@@]4(C)CCCc5sc(N)c(C#N)c54)n3)nc(O[C@@H](C)[C@@H]3CCCN3C)n2)C[C@@H]1C` [Ia-62], for which the half-inhibitory concentration (IC50) stood at 1.2 nM.
On to `C=CC(=O)N1CCN(c2cc(-c3noc([C@@]4(C)CCCc5sc(N)c(C#N)c54)n3)nc(O[C@@H](C)[C@@H]3CCCN3C)n2)CC1` [Ia-46], for which the IC50 worked out at 2.1 nM.
Same read-out and setting: the value for `C=CC(=O)N1C[C@H](C)N(c2cc(-c3noc([C@@]4(C)CCCc5sc(N)c(C#N)c54)n3)nc(O[C@@H](C)[C@@H]3CCCN3C)n2)C[C@H]1C` [Ia-133] was 28.9 nM.

The target in a further assay is T1, protein-protein interaction between SOS1 and KRAS G12C (Homo sapiens, UniProt P01116, C118S/C51S/C80L/G12C).
T1 construct: His6 (N)
T1 sequence (P01116 1-169 isoform P01116-2 G12C/C51S/C80L/C118S): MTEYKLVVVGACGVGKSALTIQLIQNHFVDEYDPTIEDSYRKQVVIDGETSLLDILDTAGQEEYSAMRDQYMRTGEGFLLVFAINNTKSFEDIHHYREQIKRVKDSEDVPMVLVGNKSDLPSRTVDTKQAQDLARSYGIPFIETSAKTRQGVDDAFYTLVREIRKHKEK
The assay can be described thus: KRAS::SOS1 AlphaScreen binding assay. Particulars: Table 36.
The compound `C=CC(=O)N1CCN(c2cc(O[C@@H](C)[C@@H]3CCCN3C)nc(-c3noc([C@@]4(C)CCCc5sc(N)c(C#N)c54)n3)n2)CC12CC2` [Ia-77] had an IC50 of 2 nM.
`C=CC(=O)N1[C@@H](C)CN(c2cc(-c3noc([C@@]4(C)CCCc5sc(N)c(C#N)c54)n3)nc(O[C@@H](C)[C@@H]3CCCN3C)n2)C[C@@H]1C` [Ia-62] gave an IC50 of 1.6 nM.
Compound `C=CC(=O)N1CCN(c2cc(-c3noc([C@@]4(C)CCCc5sc(N)c(C#N)c54)n3)nc(O[C@@H](C)[C@@H]3CCCN3C)n2)CC1` [Ia-46] had an IC50 of 1.7 nM.
`C=CC(=O)N1C[C@H](C)N(c2cc(-c3noc([C@@]4(C)CCCc5sc(N)c(C#N)c54)n3)nc(O[C@@H](C)[C@@H]3CCCN3C)n2)C[C@H]1C` [Ia-133] yielded an IC50 of 12 nM.

These data come from patent publication US20230212164A1, “ANNULATED 2-AMINO-3-CYANO THIOPHENES AND DERIVATIVES FOR THE TREATMENT OF CANCER” (BOEHRINGER INGELHEIM INTERNATIONAL GMBH, priority 2020, published 2023).
